Measured values taken from PubChem BioAssay AID248 (DTP/NCI, 2004).
Several values for one entry are separate records, joined by “and”; a condition that tells them apart may be missing. Equal values may be shown once. Inconclusive results and toxic doses are left out. Rule as the data show it: active = T/C of 150% or more; inactive = T/C below 125%. Square brackets hold non-standard residues; d marks the D form. Peptide text beside a SMILES is read from it. * marks the point of attachment. ξ: configuration not given here. ξW = NC(Cc1c[nH]c2ccccc12)C(=O)O; Cbz = O=C(OCc1ccccc1)*

System: L1210 leukemia ip in BDF1 mice, survival T/C
Assay: NCI In Vivo Anticancer Drug Screen. Data for tumor model L1210 Leukemia (intraperitoneal) in B6D2F1 (BDF1) mice
Conditions: endpoint: mean survival time, higher = longer survival
In short: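 Ratio derived from survival: compound-dosed mice over vehicle-dosed mice, all bearing a transplantable tumor.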

[1] = dose: 50.0 mg/kg/injection, schedule: Q01DX009 (ip), vehicle: Klucel (hydroxypropylcellulose) (HPC)
[2] = dose: 100.0 mg/kg/injection, schedule: Q01DX009 (ip), vehicle: Klucel (hydroxypropylcellulose) (HPC)
[3] = dose: 100.0 mg/kg/injection, schedule: Q04DX003 (ip), vehicle: Klucel (hydroxypropylcellulose) (HPC)
[4] = dose: 200.0 mg/kg/injection, schedule: Q01DX009 (ip), vehicle: Klucel (hydroxypropylcellulose) (HPC)
[5] = dose: 200.0 mg/kg/injection, schedule: Q04DX003 (ip), vehicle: Klucel (hydroxypropylcellulose) (HPC)
[6] = dose: 50.0 mg/kg/injection, schedule: Q01DX009 (ip), vehicle: saline with Tween-80
[7] = dose: 100.0 mg/kg/injection, schedule: Q01DX009 (ip), vehicle: saline with Tween-80
[8] = dose: 100.0 mg/kg/injection, schedule: Q01DX001 (ip), vehicle: saline
[9] = dose: 50.0 mg/kg/injection, schedule: Q01DX001 (ip), vehicle: saline
[10] = dose: 400.0 mg/kg/injection, schedule: Q01DX001 (ip), vehicle: saline
[11] = dose: 100.0 mg/kg/injection, schedule: Q04DX003 (ip), vehicle: saline
[12] = dose: 200.0 mg/kg/injection, schedule: Q04DX003 (ip), vehicle: saline
[13] = dose: 400.0 mg/kg/injection, schedule: Q01DX009 (ip), vehicle: Klucel (hydroxypropylcellulose) (HPC)
[14] = dose: 400.0 mg/kg/injection, schedule: Q04DX003 (ip), vehicle: Klucel (hydroxypropylcellulose) (HPC)
[15] = dose: 100.0 mg/kg/injection, schedule: Q04DX003 (ip), vehicle: saline with Tween-80
[16] = dose: 200.0 mg/kg/injection, schedule: Q04DX003 (ip), vehicle: saline with Tween-80
[17] = dose: 400.0 mg/kg/injection, schedule: Q04DX003 (ip), vehicle: saline with Tween-80
[18] = dose: 100.0 mg/kg/injection, schedule: Q04DX002 (ip), vehicle: Klucel (hydroxypropylcellulose) (HPC)
[19] = dose: 200.0 mg/kg/injection, schedule: Q04DX002 (ip), vehicle: Klucel (hydroxypropylcellulose) (HPC)
[20] = dose: 50.0 mg/kg/injection, schedule: Q01DX009 (ip), vehicle: saline
[21] = dose: 200.0 mg/kg/injection, schedule: Q01DX001 (ip), vehicle: saline
[22] = dose: 12.5 mg/kg/injection, schedule: Q01DX009 (ip), vehicle: saline with Tween-80
[23] = dose: 25.0 mg/kg/injection, schedule: Q01DX009 (ip), vehicle: saline with Tween-80

Measured: T/C

ClC(Cl)C(Cl)(Cl)C(Cl)(Cl)Cl
inactive: [1] 96 % of control | [2] 94 % of control | [3] 95 % of control | [4] 98 % of control | [5] 108 % of control

c1ccc(SCN(CSc2ccccc2)c2ccccc2)cc1
inactive: [2] 106 % of control | [4] 101 % of control

CCOC(=O)C(CC(=O)c1ccccc1)C(C)=O (stereo not drawn)
inactive: [6] 97 % of control | [7] 93 % of control | dose: 200.0 mg/kg/injection, schedule: Q01DX009 (ip), vehicle: saline with Tween-80 97 % of control

CN1CCC=C(C(=O)O)C1
inactive: dose: 50.0 mg/kg/injection, schedule: Q01DX001 (ip), vehicle: carboxymethylcellulose (CMC) 101 % of control | dose: 100.0 mg/kg/injection, schedule: Q01DX001 (ip), vehicle: carboxymethylcellulose (CMC) 110 % of control | dose: 200.0 mg/kg/injection, schedule: Q01DX001 (ip), vehicle: carboxymethylcellulose (CMC) 104 % of control

Nc1nc(N)c(C=Nc2ccc(I)cc2)c(Nc2ccc(I)cc2)n1
inactive: dose: 400.0 mg/kg/injection, schedule: Q01DX001 (ip), vehicle: alcohol 86 % of control

O=[N+]([O-])c1ccccc1N=Nc1c(O)[nH]c2ccc(F)cc12
inactive: dose: 75.0 mg/kg/injection, schedule: Q01DX001 (ip), vehicle: acetone 96 % of control | dose: 150.0 mg/kg/injection, schedule: Q01DX001 (ip), vehicle: acetone 96 % of control | dose: 300.0 mg/kg/injection, schedule: Q01DX001 (ip), vehicle: acetone 103 % of control

CCOC(=O)Cc1ccc(CC(=O)OCC)cc1
inactive: dose: 75.0 mg/kg/injection, schedule: Q04DX003 (ip), vehicle: saline 100 % of control | dose: 150.0 mg/kg/injection, schedule: Q04DX003 (ip), vehicle: saline 105 % of control | dose: 300.0 mg/kg/injection, schedule: Q04DX003 (ip), vehicle: saline 96 % of control

O=C(O)CN1C(=O)NC(C2CC2)(C2CC2)C1=O
inactive: dose: 100.0 mg/kg/injection, schedule: Q04DX003 (ip), vehicle: acetone 100 % of control | dose: 200.0 mg/kg/injection, schedule: Q04DX003 (ip), vehicle: acetone 96 % of control | dose: 400.0 mg/kg/injection, schedule: Q04DX003 (ip), vehicle: acetone 100 % of control

CC(C)(C)CC#N
inactive: dose: 5.0 mg/kg/injection, schedule: Q01DX001 (ip), vehicle: saline 100 % of control | dose: 10.0 mg/kg/injection, schedule: Q01DX001 (ip), vehicle: saline 106 % of control | dose: 20.0 mg/kg/injection, schedule: Q01DX001 (ip), vehicle: saline 102 % of control | dose: 40.0 mg/kg/injection, schedule: Q01DX001 (ip), vehicle: saline 106 % of control | dose: 80.0 mg/kg/injection, schedule: Q01DX001 (ip), vehicle: saline 100 % of control | [8] 94 % of control

Cc1ccccc1NC(=O)C1CCCC1=O (stereo not drawn)
inactive: [9] 101 % of control | [8] 103 % of control | [10] 109 % of control

O=C(Nc1cccc(C(F)(F)F)c1)Nc1c(Oc2ccc(Cl)c(Cl)c2)ccc(Cl)c1S(=O)(=O)O
inactive: [11] 103 % of control | [12] 94 % of control

Cc1cc(Cl)c(Cl)cc1NC(=O)/C=C\c1ccccc1
inactive: [2] 114 % of control | [3] 91 % of control | [4] 108 % of control | [5] 94 % of control | [13] 102 % of control | [14] 97 % of control

CC(=O)c1ccccc1[N+](=O)[O-]
inactive: [15] 107 % of control | [16] 96 % of control | [17] 94 % of control

COc1cc(OC)c(N=CN(C)C)cc1Cl
inactive: dose: 25.0 mg/kg/injection, schedule: Q01DX009 (ip), vehicle: Klucel (hydroxypropylcellulose) (HPC) 104 % of control | [1] 102 % of control | dose: 75.0 mg/kg/injection, schedule: Q01DX009 (ip), vehicle: Klucel (hydroxypropylcellulose) (HPC) 99 % of control and 105 % of control

CC(C)(C)OC(=O)c1cc([N+](=O)[O-])cc([N+](=O)[O-])c1
inactive: [18] 104 % of control | [19] 104 % of control | dose: 400.0 mg/kg/injection, schedule: Q04DX002 (ip), vehicle: Klucel (hydroxypropylcellulose) (HPC) 107 % of control

O=S(=O)(O)O.[N-]=C(N)/N=C(\[NH-])N.[N-]=C(N)/N=C(\[NH-])N.[N-]=C(N)NC(=[N-])N.[Rh+3]
inactive: dose: 12.5 mg/kg/injection, schedule: Q04DX003 (ip), vehicle: saline 91 % of control | dose: 25.0 mg/kg/injection, schedule: Q01DX009 (ip), vehicle: saline 118 % of control | dose: 25.0 mg/kg/injection, schedule: Q04DX003 (ip), vehicle: saline 109 % of control | [20] 98 % of control | dose: 50.0 mg/kg/injection, schedule: Q04DX003 (ip), vehicle: saline 96 % of control

Cc1ccc(C(=O)Cc2ccc(C#N)cc2)cc1
inactive: [9] 98 % of control | [8] 96 % of control | [21] 104 % of control | [10] 98 % of control

BrC12CCC(CC1)C1CCC2CC1
inactive: dose: 100.0 mg/kg/injection, schedule: Q01DX009 (ip), vehicle: saline 90 % of control | [11] 96 % of control | dose: 200.0 mg/kg/injection, schedule: Q01DX009 (ip), vehicle: saline 87 % of control | [12] 97 % of control | dose: 400.0 mg/kg/injection, schedule: Q01DX009 (ip), vehicle: saline 88 % of control | dose: 400.0 mg/kg/injection, schedule: Q04DX003 (ip), vehicle: saline 98 % of control

CC(C)C(COC(=O)c1ccc(N)cc1)NC1CCCCC1C (stereo not drawn)
inactive: dose: 75.0 mg/kg/injection, schedule: Q01DX001 (ip), vehicle: carboxymethylcellulose (CMC) 97 % of control | dose: 150.0 mg/kg/injection, schedule: Q01DX001 (ip), vehicle: carboxymethylcellulose (CMC) 95 % of control | dose: 300.0 mg/kg/injection, schedule: Q01DX001 (ip), vehicle: carboxymethylcellulose (CMC) 89 % of control

CC(C)(O)C(=O)NCNC(=O)C(C)(C)O
inactive: [2] 102 % of control | [3] 103 % of control | [4] 97 % of control | [5] 103 % of control | [13] 97 % of control | [14] 106 % of control

O=C(O)c1cc(Br)c(Br)s1
inactive: [6] 98 % of control | [7] 105 % of control

COC(=O)C(Cc1c[nH]c2ccccc12)NC(=O)CNC(=O)CNC(=O)OCc1ccccc1 (stereo not drawn) (Cbz-Gly-Gly-[ξW]-OMe)
inactive: [15] 105 % of control | [16] 101 % of control | [17] 100 % of control

C1=CCOCOC1
inactive: [22] 97 % of control | [23] 94 % of control | [6] 97 % of control | [7] 113 % of control

C=CCCC[P+](c1ccccc1)(c1ccccc1)c1ccccc1
inactive: dose: 3.13 mg/kg/injection, schedule: Q01DX009 (ip), vehicle: saline 95 % of control | dose: 6.25 mg/kg/injection, schedule: Q01DX009 (ip), vehicle: saline 103 % of control | [22] 108 % of control | dose: 12.5 mg/kg/injection, schedule: Q01DX009 (ip), vehicle: saline 100 % of control | [23] 108 % of control | [20] 101 % of control

O=S(=O)(O)Nc1ccc(S(=O)(=O)O)c2ccccc12
inactive: [9] 102 % of control | [8] 93 % of control | [21] 96 % of control | [10] 98 % of control

CC(C)C(C#N)(CCCCN1CCCC1)c1cccc2ccccc12 (stereo not drawn)
inactive: [15] 95 % of control

CCSCC1OC(n2cnc3c(N)nc(Cl)nc32)C(O)C1O (stereo not drawn)
inactive: dose: 12.5 mg/kg/injection, schedule: Q01DX001 (ip), vehicle: saline with Tween-80 100 % of control | dose: 25.0 mg/kg/injection, schedule: Q01DX001 (ip), vehicle: saline with Tween-80 100 % of control | dose: 50.0 mg/kg/injection, schedule: Q01DX001 (ip), vehicle: saline with Tween-80 102 % of control

CCCCCCC(=O)N1CC(C)OC(C)C1 (stereo not drawn)
inactive: [18] 96 % of control | [19] 96 % of control
